Test results: patent publication US9371294B2, “Cycloalkenyl aryl derivatives for CETP inhibitor” (CHONG KUN DANG PHARMACEUTICAL CORP., priority 2011, dated 2016)

Target: T1, cholesteryl ester transfer protein (Homo sapiens, UniProt P11597)
T1 construct: As a source of cholesteryl ester transfer protein, plasma from healthy humans was used; from tissue; host or cells: plasma from healthy humans
T1 sequence (P11597 18-493): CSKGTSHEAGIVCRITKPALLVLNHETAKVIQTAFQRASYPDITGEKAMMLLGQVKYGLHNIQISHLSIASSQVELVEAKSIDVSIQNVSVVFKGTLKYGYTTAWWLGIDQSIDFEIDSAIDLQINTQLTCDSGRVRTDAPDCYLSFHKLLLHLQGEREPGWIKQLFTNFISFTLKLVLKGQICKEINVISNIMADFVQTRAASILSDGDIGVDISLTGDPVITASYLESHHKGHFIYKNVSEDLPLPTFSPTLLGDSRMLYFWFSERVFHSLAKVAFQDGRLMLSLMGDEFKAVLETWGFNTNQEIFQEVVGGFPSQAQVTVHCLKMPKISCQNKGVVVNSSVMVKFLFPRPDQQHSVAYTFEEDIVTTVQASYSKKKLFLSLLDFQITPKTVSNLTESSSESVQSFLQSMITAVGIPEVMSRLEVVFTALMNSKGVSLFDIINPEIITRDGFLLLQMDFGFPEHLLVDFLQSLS
Assay: In vitro test for the ability to inhibit cholesteryl ester transfer
Assay type: biochemical
Conditions: [3H]-cholesteryl oleate transfer from rHDL-agarose to LDL; human plasma as CETP source; 37° C.; 16-10000 nM, duplicate
Text: In Vitro Test for the Ability to Inhibit Cholesteryl Ester Transfer
1. Preparation of Cholesteryl Ester Donor
In order to prepare a cholesteryl ester donor to be used in the test, a radiolabeled recombinant HDL containing [^3H]-cholesteryl oleate (GE healthcare, TRK886, 3.5 μCi/mg of apoA-1) and apoA-1 was synthesized. Then, rHDL-agarose obtained by immobilizing the recombinant HDL with CNBr-activated Sepharose 4B resin (Amersham Biosciences, Sweden) was used in the test.
2. Cholesteryl Ester Transfer Test
As a source of cholesteryl ester transfer protein, plasma from healthy humans was used, and as cholesteryl ester receptor, LDL from healthy humans was used. Each of test compounds was added to be final concentrations of 16, 80, 400, 2000 and 10000 nM and tested in duplicate. In order to test cholesteryl ester transfer, 20 μl of plasma, 50 μl of LDL (0.25 mg/ml) and 50 μl of rHDL-agarose (0.25 mg/ml) were mixed with each other, and a solution of each test compound was added thereto and reacted thereto at 37° C. Then, the reaction solution was centrifuged at 4° C. for 3 minutes, thereby the reaction was stopped. 150 μl of the supernatant was transferred into a 96-well plate for radioactivity measurement, and the radioactivity thereof was measured with a beta-ray detector.
3. Statistical Processing
The ratio of [^3H]-cholesteryl oleate transferred from HDL to LDL was determined, and based on the determined ratio, the IC50 value of each compound was determined using GraphPad Prism 5.0.

| SMILES | IC50 [nM] |
| --- | --- |
| COc1ccc(N(C)C(=O)CC(F)(F)F)cc1C1=C(CN2C(=O)O[C@H](c3cc(C(F)(F)F)cc(C(F)(F)F)c3)[C@@H]2C)CC(C)(C)CC1 [Compound 130, N-(3-(2-(((4S,5R)-5-(3,5-bis(trifluoromethyl)phenyl)-4-methyl-2-oxooxazolidin-3-yl)methyl)-4,4-dimethylcyclohex-1-enyl)-4-methoxyphenyl)-3,3,3-trifluoro-N-methylpropanamide] | 20 |
| COc1ccc(C(OC)(C(F)(F)F)C(F)(F)F)cc1C1=C(CN2C(=O)O[C@H](c3cc(C(F)(F)F)cc(C(F)(F)F)c3)[C@@H]2C)CC(C)(C)CC1 [Compound 182, (4S,5R)-5-(3,5-bis(trifluoromethyl)phenyl)-3-((2-(5-(1,1,1,3,3,3-hexafluoro-2-methoxypropan-2-yl)-2-methoxyphenyl)-5,5-dimethylcyclohex-1-enyl)methyl)-4-methyloxazolidin-2-one] | 50 |
| COc1cc(F)c(C(C)=O)cc1C1=C(CN2C(=O)O[C@H](c3cc(C(F)(F)F)cc(C(F)(F)F)c3)[C@@H]2C)CC(C)(C)CC1 [Compound 184, (4S,5R)-3-((2-(5-acetyl-4-fluoro-2-methoxyphenyl)-5,5-dimethylcyclohex-1-enyl)methyl)-5-(3,5-bis(trifluoromethyl)phenyl)-4-methyloxazolidin-2-one] | 20 |
| COc1ccc(C2=NCCO2)cc1C1=C(CN2C(=O)O[C@H](c3cc(C(F)(F)F)cc(C(F)(F)F)c3)[C@@H]2C)CC(C)(C)CC1 [Compound 185, (4S,5R)-5-(3,5-bis(trifluoromethyl)phenyl)-3-((2-(5-(4,5-dihydrooxazol-2-yl)-2-methoxyphenyl)-5,5-dimethylcyclohex-1-enyl)methyl)-4-methyloxazolidin-2-one] | 180 |
| COc1ccc(C2=N[C@H](C(C)C)CO2)cc1C1=C(CN2C(=O)O[C@H](c3cc(C(F)(F)F)cc(C(F)(F)F)c3)[C@@H]2C)CC(C)(C)CC1 [Compound 188, (4S,5R)-5-(3,5-bis(trifluoromethyl)phenyl)-3-((2-(5-((R)-4-isopropyl-4,5-dihydrooxazol-2-yl)-2-methoxyphenyl)-5,5-dimethylcyclohex-1-enyl)methyl)-4-methyloxazolidin-2-one] | 120 |
| COc1ccc(C2(C#N)CC2)cc1C1=C(CN2C(=O)O[C@H](c3cc(C(F)(F)F)cc(C(F)(F)F)c3)[C@@H]2C)CC(C)(C)CC1 [Compound 189, 1-(3-(2-(((4S,5R)-5-(3,5-bis(trifluoromethyl)phenyl)-4-methyl-2-oxooxazolidin-3-yl)methyl)-4,4-dimethylcyclohex-1-enyl)-4-methoxyphenyl)cyclopropanecarbonitrile] | 20 |
| COc1cc(F)c(C(=O)C(F)(F)F)cc1C1=C(CN2C(=O)O[C@H](c3cc(C(F)(F)F)cc(C(F)(F)F)c3)[C@@H]2C)CC(C)(C)CC1 [Compound 191, (4S,5R)-5-(3,5-bis(trifluoromethyl)phenyl)-3-((2-(4-fluoro-2-methoxy-5-(2,2,2-trifluoroacetyl)phenyl)-5,5-dimethylcyclohex-1-enyl)methyl)-4-methyloxazolidin-2-one] | 90 |
| COc1cc(F)c(C(=O)C2CC2)cc1C1=C(CN2C(=O)O[C@H](c3cc(C(F)(F)F)cc(C(F)(F)F)c3)[C@@H]2C)CC(C)(C)CC1 [Compound 192, (4S,5R)-5-(3,5-bis(trifluoromethyl)phenyl)-3-((2-(5-(cyclopropanecarbonyl)-4-fluoro-2-methoxyphenyl)-5,5-dimethylcyclohex-1-enyl)methyl)-4-methyloxazolidin-2-one] | 60 |
| COc1ccc(C(F)(F)F)cc1C1=C(CN2C(=O)O[C@H](c3cc(C(F)(F)F)cc(C(F)(F)F)c3)[C@@H]2C)CC(C(F)(F)F)CC1 (stereo partly drawn) [Compound 193, (4S,5R)-5-(3,5-bis(trifluoromethyl)phenyl)-3-((2-(2-methoxy-5-(trifluoromethyl)phenyl)-5-(trifluoromethyl)cyclohex-1-enyl)methyl)-4-methyloxazolidin-2-one] | 40 |
| COc1ccc([N+](=O)[O-])cc1C1=C(CN2C(=O)O[C@H](c3cc(C(F)(F)F)cc(C(F)(F)F)c3)[C@@H]2C)CC(C(F)(F)F)CC1 (stereo partly drawn) [Compound 194, (4S,5R)-5-(3,5-bis(trifluoromethyl)phenyl)-3-((2-(2-methoxy-5-nitrophenyl)-5-(trifluoromethyl)cyclohex-1-enyl)methyl)-4-methyloxazolidin-2-one] | 100 |
| COc1ccc(N)cc1C1=C(CN2C(=O)O[C@H](c3cc(C(F)(F)F)cc(C(F)(F)F)c3)[C@@H]2C)CC(C(F)(F)F)CC1 (stereo partly drawn) [Compound 195, (4S,5R)-3-((2-(5-amino-2-methoxyphenyl)-5-(trifluoromethyl)cyclohex-1-enyl)methyl)-5-(3,5-bis(trifluoromethyl)phenyl)-4-methyloxazolidin-2-one] | 840 |
| COc1ccc(N(C)c2nc(C(F)(F)F)cs2)cc1C1=C(CN2C(=O)O[C@H](c3cc(C(F)(F)F)cc(C(F)(F)F)c3)[C@@H]2C)CC(C)(C)CC1 [Compound 212, (4S,5R)-5-(3,5-bis(trifluoromethyl)phenyl)-3-((2-(2-methoxy-5-(methyl(4-(trifluoromethyl)thiazol-2-yl)amino)phenyl)-5,5-dimethylcyclohex-1-enyl)methyl)-4-methyloxazolidin-2-one] | 80 |
| COc1cc(F)c(N(C)C(C)=O)cc1C1=C(CN2C(=O)O[C@H](c3cc(C(F)(F)F)cc(C(F)(F)F)c3)[C@@H]2C)CC(C)(C)CC1 [Compound 215, N-(5-(2-(((4S,5R)-5-(3,5-bis(trifluoromethyl)phenyl)-4-methyl-2-oxooxazolidin-3-yl)methyl)-4,4-dimethylcyclohex-1-enyl)-2-fluoro-4-methoxyphenyl)-N-methylacetamide] | 20 |

More lines, in order of falling IC50, values ahead:

| IC50 [nM] | SMILES |
| --- | --- |
| 490 | COc1ccc(NC(C)=O)cc1C1=C(CN2C(=O)O[C@H](c3cc(C(F)(F)F)cc(C(F)(F)F)c3)[C@@H]2C)CC(C(F)(F)F)CC1 (stereo partly drawn) [Compound 196, N-(3-(2-(((4S,5R)-5-(3,5-bis(trifluoromethyl)phenyl)-4-methyl-2-oxooxazolidin-3-yl)methyl)-4-(trifluoromethyl)cyclohex-1-enyl)-4-methoxyphenyl)acetamide] |
| 80 | COc1ccc(NS(=O)(=O)C(F)(F)F)cc1C1=C(CN2C(=O)O[C@H](c3cc(C(F)(F)F)cc(C(F)(F)F)c3)[C@@H]2C)CC(C)(C)CC1 [Compound 137, N-(3-(2-(((4S,5R)-5-(3,5-bis(trifluoromethyl)phenyl)-4-methyl-2-oxooxazolidin-3-yl)methyl)-4,4-dimethylcyclohex-1-enyl)-4-methoxyphenyl)trifluoromethanesulfonamide] |
| 50 | COc1ccc(C(O)(C(F)(F)F)C(F)(F)F)cc1C1=C(CN2C(=O)O[C@H](c3cc(C(F)(F)F)cc(C(F)(F)F)c3)[C@@H]2C)CC(C)(C)CC1 [Compound 181, (4S,5R)-5-(3,5-bis(trifluoromethyl)phenyl)-3-((2-(5-(1,1,1,3,3,3-hexafluoro-2-hydroxypropan-2-yl)-2-methoxyphenyl)-5,5-dimethylcyclohex-1-enyl)methyl)-4-methyloxazolidin-2-one] |
| 10 | COc1ccc(C2(C(N)=O)CC2)cc1C1=C(CN2C(=O)O[C@H](c3cc(C(F)(F)F)cc(C(F)(F)F)c3)[C@@H]2C)CC(C)(C)CC1 [Compound 190, 1-(3-(2-(((4S,5R)-5-(3,5-bis(trifluoromethyl)phenyl)-4-methyl-2-oxooxazolidin-3-yl)methyl)-4,4-dimethylcyclohex-1-enyl)-4-methoxyphenyl)cyclopropanecarboxamide] |
| 10 | COc1cc(C(F)(F)F)c(N(C)S(=O)(=O)C(F)(F)F)cc1C1=C(CN2C(=O)O[C@H](c3cc(C(F)(F)F)cc(C(F)(F)F)c3)[C@@H]2C)CC(C)(C)CC1 [Compound 209, N-(5-(2-(((4S,5R)-5-(3,5-bis(trifluoromethyl)phenyl)-4-methyl-2-oxooxazolidin-3-yl)methyl)-4,4-dimethylcyclohex-1-enyl)-4-methoxy-2-(trifluoromethyl)phenyl)trifluoro-N-methylmethanesulfonamide] |
| 8 | COc1cc(C(F)(F)F)c(N(C)C(C)=O)cc1C1=C(CN2C(=O)O[C@H](c3cc(C(F)(F)F)cc(C(F)(F)F)c3)[C@@H]2C)CC(C)(C)CC1 [Compound 210, N-(5-(2-(((4S,5R)-5-(3,5-bis(trifluoromethyl)phenyl)-4-methyl-2-oxooxazolidin-3-yl)methyl)-4,4-dimethylcyclohex-1-enyl)-4-methoxy-2-(trifluoromethyl)phenyl)-N-methylacetamide] |
